Where two headings read alike, the source gives them in different places.

In test [1] the target is T1, R155K mutant of the HCV NS3/4A 1b protease enzyme (Hepatitis C virus genotype 1b, UniProt P26663, R1181K).
T1 construct: 10× stocks of NS3/4A protease enzyme from Bioenza (Mountain View, Calif.); purchased Bioenza (Mountain View, Calif.)
Put plainly: HCV Protease FRET Assay (IC50_APP), R155K mutant. In kind it is biochemical. On the procedure:
HCV Protease FRET Assay for WT and Mutated NS3/4A 1b Enzymes (IC50—APP).
The following protocol was used to generate “apparent” IC50 (IC50—APP) values as depicted in Table 6, below. […] 5 μL of each enzyme were added to Corning (#3575) 384-well, black, microtiter plates (Corning, N.Y.) after spotting a 0.5 μL volume of 50% DMSO and serially diluted compounds prepared in 50% DMSO. Protease reactions were immediately started after enzyme addition with the addition of 45 μL of the FRET substrate and monitored for 60-90 minutes at λex485/λem520 in a Synergy^4 plate reader from BioTek (Winooski, Vt.). At the conclusion of each assay, progress curves from each well were examined for linear reaction kinetics and fit statistics (R^2, 95% confidence intervals, absolute sum of squares).
The compound numbers correspond to the compound numbers in Table 3. […] ;

The target of test [2] is T2, A156T mutant of the HCV NS3/4A 1b protease enzyme (Hepatitis C virus genotype 1b, UniProt P26663, A1182T).
T2 construct: 10× stocks of NS3/4A protease enzyme from Bioenza (Mountain View, Calif.); purchased Bioenza (Mountain View, Calif.)
Put plainly: HCV Protease FRET Assay (IC50_APP), A156T mutant. In kind it is biochemical. The settings on record: apparent IC50, A156T mutant; read-out: IC50_APP, HCV A156T.

Test [3] has as its system HCV RNA replicon in cell line ET (luc-ubi-neo/ET), human Huh7 hepatoma. Put plainly: Method A: HCV RNA replicon antiviral assay (luciferase, ET cell line). In kind it is cell-based, Hepatitis C virus. As to conditions: Hepatitis C virus, Huh-7, assay described in Example 22; for IC50: read-out: Replicon (IC50). In a few lines: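 ET replicon cells (Huh7 carrying luciferase-reporter HCV replicon) plated at 5×10^3 cells/well and exposed 72 hr to six 3-fold drug concentrations in DMEM/5% FBS. Replicon luciferase gave EC50/EC90; CytoTox-1 cell counts gave IC50 (viability); […]. Interferon alpha-2b served as positive control.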

The target in test [4] is T3, wild type HCV NS3/4A 1b protease enzyme (Hepatitis C virus genotype 1b, UniProt P26663).
T3 construct: 10× stocks of NS3/4A protease enzyme from Bioenza (Mountain View, Calif.); purchased Bioenza (Mountain View, Calif.)
Put plainly: HCV Protease FRET Assay (IC50_APP), wild type. In kind it is biochemical.

Test [5] has as its target T4, D168A mutant of the HCV NS3/4A 1b protease enzyme (Hepatitis C virus genotype 1b, UniProt P26663, D1194A).
T4 construct: 10× stocks of NS3/4A protease enzyme from Bioenza (Mountain View, Calif.); purchased Bioenza (Mountain View, Calif.)
Put plainly: HCV Protease FRET Assay (IC50_APP), D168A mutant. In kind it is biochemical.

The test system of test [6] is HCV RNA replicon in cell line ET (luc-ubi-neo/ET), human Huh7 hepatoma. In words: Luciferase Assay (Example 35), replicon-derived luciferase activity. In kind it is cell-based. As to conditions: Hepatitis C virus, Huh-7, assay described in Example 35. Here is the method:
The compounds were assayed to evaluate the antiviral activity and cytotoxicity of compounds using replicon-derived luciferase activity. This assay used the cell line ET (luc-ubi-neo/ET), which is a human Huh7 hepatoma cell line that contains an HCV RNA replicon with a stable luciferase (Luc) reporter and cell culture-adaptive mutations. The ET cell line was grown in a 5% CO2 incubator at 37° C. in Dulbecco's modified essential media (DMEM) supplemented with 2 mM L-glutamine, nonessential amino acids, 100 U of penicillin/ml, 100 μg of streptomycin/mL, and 10% fetal bovine serum. G418 (Geneticin; Invitrogen) was added at a final concentration of 400 ug//mL.
All cell culture reagents were obtained from Invitrogen (Carlsbad). Cells were trypsinized (1% trypsin:EDTA) and plated out at 5×10^3 cells/well in white 96-well assay plates (Costar) dedicated to cell number (cytotoxicity) or antiviral activity assessments. Test compounds were added at six 3-fold concentrations each and the assay was run in DMEM, 5% FBS, 1% pen-strep, 1% glutamine, 1% non essential amino acid. Human interferon alpha-2b (PBL Biolabs, New Brunswick, N.J.) was included in each run as a positive control compound. Cells were processed 72 hr post test compound addition when the cells were still subconfluent. Antiviral activity was measured by analyzing replicon-derived luciferase activity using the Steady-Glo Luciferase Assay System (Promega, Madison, Wis.) according to manufacturer's instruction. The number of cells in each well was determined by Cell Titer Blue Assay (Promega). Compound profile was derived by calculating applicable EC50 (effective concentration inhibiting virus replication by 50%), EC90 (effective concentration inhibiting virus replication by 90%), IC50 (concentration decreasing cell viability by 50%) and SI50 (selective index: […]) values.

Setting [7] is: apparent IC50, R155K mutant; read-out: IC50_APP, HCV R155K.
[8] abbreviates: apparent IC50, D168A mutant; read-out: IC50_APP, HCV D168A.
Where [9] appears, read: read-out: IC50_APP, WT, apparent IC50, wild type NS3/4A 1b.

Take `C=CC(=O)NC[C@@H]1NC(=O)OCCC/C=C/c2ccc3ccnc(c3c2)O[C@@H]2C[C@@H](C(=O)N[C@]3(C(=O)NS(=O)(=O)C4CC4)C[C@H]3C=C)N(C2)C1=O` [Compound I-77, (1R,2S)-N-1-cyclopropylsulfonylcarboxamido-2-vinylcyclopropyl (2R,4S,7S,14E)-7-acrylamidomethyl-2H-16,18-etheno-2,5-methano-11H-pyrido[2,3-k][1,10,3,6]dioxadiazacyclononadecine-4-ylcarboxamide]: the IC50 in test [1] (setting [7]) was 10 to 100 nM; in test [2], 100 to 1000 nM; in test [3], < 10 nM; in test [4], < 10 nM; in test [5] (setting [8]), 100 to 1000 nM. In test [3], this compound yielded an IC90 of 10 to 100 nM.

For the compound `C=CC(=O)NC[C@H](NC(=O)OC1CCCC1)C(=O)N1C[C@H](Oc2nccc3ccc(-c4cccs4)cc23)C[C@H]1C(=O)N[C@]1(C(=O)NS(=O)(=O)C2CC2)C[C@H]1C=C` [Compound I-88, Cyclopentyl-(S)-3-acrylamido-1-((2S,4R)-2-((1R,2S)-1-(cyclopropylsulfonylcarbamoyl)-2-vinylcyclopropylcarbamoyl)-4-(7-(thiophen-2-yl)isoquinolin-1-yloxy)pyrrolidin-1-yl)-1-oxopropan-2-ylcarbamate], the IC50 in test [1] (setting [7]) is 1000 to 10000 nM; in test [3], < 10 nM; in test [4], < 10 nM; in test [5] (setting [8]) it was 100 to 1000 nM. This compound also came in with a concentration for an effect of 90% (IC90) in test [3] of 10 to 100 nM.

For the compound `C=C[C@@H]1C[C@]1(NC(=O)[C@@H]1C[C@@H](Oc2nccc3ccc(Br)cc23)CN1C(=O)[C@H](CCC(=O)/C(C)=C/C)NC(=O)OC(C)(C)C)C(=O)NS(=O)(=O)C1CC1` [Compound I-91, {1-[4-(7-Bromo-isoquinolin-1-yloxy)-2-(1-cyclopropanesulfonylaminocarbonyl-2-vinyl-cyclopropylcarbamoyl)-pyrrolidine-1-carbonyl]-5-methyl-4-oxo-hept-5-enyl}-carbamic acid tert-butyl ester], in test [6], the EC90 is 100 to 1000 nM. The EC50 in test [6] was 10 to 100 nM. In addition, the IC50 in test [1] (setting [7]) is 100 to 1000 nM; in test [4] (setting [9]), < 10 nM; in test [5] (setting [8]), 1000 to 10000 nM.

Turning to `C=CC(=O)NC[C@H](NC(=O)OC(C)(C)C)C(=O)N1C[C@H](Oc2nccc3cc(OC)ccc23)C[C@H]1C(=O)N[C@]1(C(=O)NS(=O)(=O)C2CC2)C[C@H]1C=C` [Compound I-92, {1-(Acryloylamino-methyl)-2-[2-(1-cyclopropanesulfonylaminocarbonyl-2-vinyl-cyclopropylcarbamoyl)-4-(6-methoxy-isoquinolin-1-yloxy)-pyrrolidin-1-yl]-2-oxo-ethyl}-carbamic acid tert-butyl ester], in test [6], the concentration for an effect of 90% (EC90) is 100 to 1000 nM. This compound registered a 50% effective concentration (EC50) in test [6] of 10 to 100 nM. Besides, the IC50 was 10 to 100 nM in test [1] (setting [7]), < 10 nM in test [4] (setting [9]) and 100 to 1000 nM in test [5] (setting [8]).

`C=C[C@@H]1C[C@]1(NC(=O)[C@@H]1C[C@@H](Oc2nccc3cc(OC)ccc23)CN1C(=O)[C@H](CCC(=O)/C(C)=C/C)NC(=O)OC(C)(C)C)C(=O)NS(=O)(=O)C1CC1` [Compound I-95, {1-[2-(1-Cyclopropanesulfonylaminocarbonyl-2-vinyl-cyclopropylcarbamoyl)-4-(6-methoxy-isoquinolin-1-yloxy)-pyrrolidine-1-carbonyl]-5-methyl-4-oxo-hept-5-enyl}-carbamic acid tert-butyl ester] showed a 90% effect concentration (EC90) in test [6] of 100 to 1000 nM. The same compound gave a concentration for a half-maximal effect (EC50) in test [6] of 10 to 100 nM. The values for the IC50 in test [1] (setting [7]), in test [4] (setting [9]) and in test [5] (setting [8]) were 10 to 100 nM, < 10 nM and 100 to 1000 nM, respectively.

Compound `C=CC(=O)NC[C@H](NC(=O)OC(C)(C)C)C(=O)N1C[C@H](Oc2nccc3ccccc23)C[C@H]1C(=O)N[C@]1(C(=O)NS(=O)(=O)C2CC2)C[C@H]1C=C` [Compound I-97, {1-(Acryloylamino-methyl)-2-[2-(1-cyclopropanesulfonylaminocarbonyl-2-vinyl-cyclopropylcarbamoyl)-4-(isoquinolin-1-yloxy)-pyrrolidin-1-yl]-2-oxo-ethyl}-carbamic acid tert-butyl ester] registered an EC90 in test [6] of 100 to 1000 nM. In test [6], this compound had a concentration for a half-maximal effect (EC50) of 100 to 1000 nM. The IC50 in test [1] (read-out: IC50_APP, HCV R155K; apparent IC50, R155K mutant) was 100 to 1000 nM; in test [4] (setting [9]), < 10 nM; in test [5] (read-out: IC50_APP, HCV D168A; apparent IC50, D168A mutant), 100 to 1000 nM.

For `C=CC(=O)N(C)C[C@H](NC(=O)OC(C)(C)C)C(=O)N1C[C@H](Oc2nccc3ccccc23)C[C@H]1C(=O)N[C@]1(C(=O)NS(=O)(=O)C2CC2)C[C@H]1C=C` [Compound I-98, {1-[(Acryloyl-methyl-amino)-methyl]-2-[2-(1-cyclopropanesulfonylaminocarbonyl-2-vinyl-cyclopropylcarbamoyl)-4-(isoquinolin-1-yloxy)-pyrrolidin-1-yl]-2-oxo-ethyl}-carbamic acid tert-butyl ester], the EC90 in test [6] lay within 100 to 1000 nM. Besides, the EC50 in test [6] was 10 to 100 nM. Further, the IC50 in test [1] (setting [7]) is 100 to 1000 nM; in test [4] (setting [9]) it was 10 to 100 nM; in test [5] (setting [8]) it was 100 to 1000 nM.

The compound `C=CCN(C[C@H](NC(=O)OC(C)(C)C)C(=O)N1C[C@H](Oc2nccc3cc(OC)ccc23)C[C@H]1C(=O)N[C@]1(C(=O)NS(=O)(=O)C2CC2)C[C@H]1C=C)C(=O)C=C` [Compound I-99, {1-[(Acryloyl-allyl-amino)-methyl]-2-[2-(1-cyclopropanesulfonylaminocarbonyl-2-vinyl-cyclopropylcarbamoyl)-4-(6-methoxy-isoquinolin-1-yloxy)-pyrrolidin-1-yl]-2-oxo-ethyl}-carbamic acid tert-butyl ester] registered an EC50 in test [6] of 10 to 100 nM. Also, the IC50 in test [1] (setting [7]) is 100 to 1000 nM; in test [4] (setting [9]), < 10 nM; in test [5] (setting [8]), 1000 to 10000 nM.

In turn, `C=CC(=O)N[C@H](C)C(=O)N1C[C@H](Oc2nccc3cc(OC)ccc23)C[C@H]1C(=O)N[C@]1(C(=O)NS(=O)(=O)C2CC2)C[C@H]1C=C` [Compound I-100] yielded an EC50 in test [6] of 10 to 100 nM. The IC50 was < 10 nM in test [1] (setting [7]), < 10 nM in test [4] (setting [9]) and 10 to 100 nM in test [5] (setting [8]).

In turn, `C=CC(=O)N[C@@H](C(=O)N1C[C@H](Oc2nccc3cc(OC)ccc23)C[C@H]1C(=O)N[C@]1(C(=O)NS(=O)(=O)C2CC2)C[C@H]1C=C)C(C)C` [Compound I-101] came in with a 50% effective concentration (EC50) in test [6] of 10 to 100 nM. For the same compound, the figures for the IC50 in test [1] (setting [7]), in test [4] (setting [9]) and in test [5] (setting [8]) were 10 to 100 nM, < 10 nM and 100 to 1000 nM, respectively.

Consider `CC[C@@H]1C[C@]1(NC(=O)[C@@H]1C[C@@H](Oc2nccc3cc(OC)ccc23)CN1C(=O)[C@H](CCC(=O)C=C(C)C)NC(=O)OC(C)(C)C)C(=O)NS(=O)(=O)C1CC1` [Compound I-114], for which the EC50 in test [6] was in the range of 10 to 100 nM. Also, the IC50 in test [1] (setting [7]) is 100 to 1000 nM; in test [4] (setting [9]) it was < 10 nM.

As to `C=CC(=O)N[C@@H](C(=O)N1C[C@H](Oc2nccc3cc(OC)ccc23)C[C@H]1C(=O)N[C@]1(C(=O)NS(=O)(=O)C2CC2)C[C@H]1C=C)C(C)(C)O` [Compound I-130], the EC50 in test [6] was in the range of 100 to 1000 nM. For the same compound, the IC50 in test [4] (setting [9]) lay in the range of 10 to 100 nM; in test [5] (setting [8]) it was 100 to 1000 nM.

Values taken from patent US8309685B2 (Celgene Avilomics Research, Inc., priority 2007, dated 2012).
